# Measured values as given in publication PMC7552917, “Systematic exploration of different E3 ubiquitin ligases: an approach towards potent and selective CDK6 degraders” (Chemical Science, 2020).
# Read-outs that look alike come from different tables or passages of the source.
# Assays:
# [1] = elog D7.4 by chromatographic (HPLC) method; format: physicochemical; conditions: Polaris C18-A column, pH 7.4, read-out: elog D7.4 (experimental distribution coefficient at pH 7.4)
# Method: Supplementary Information: Physical Chemistry
# N. Molecular Descriptor Calculation […]
# O. Physicochemical Measurements
# The determination of the elog D7.4 values was performed by a chromatographic method according to […]
# The column was a Polaris C18-A column (2 mm I.D., 50 mm length, 3 μm particle size) from Agilent Technologies. A linear mobile phase gradient was applied with […] TRIS buffer adjusted to pH 7.4 and MeCN. Therefore, the gradient was run from 5% […]
# between the runs with a constant flow-rate of 0.8 ml/min and a temperature of 25 °C. The output wavelength of the detector was set to 269.5 nm. In order to calibrate the log D7.4 to the retention time, 6 different drugs with known log D7.4 were dissolved in DMSO and 10 µl were injected […]
# Approximately 1 mg of the samples was dissolved in DMSO and 5 µl were injected. Analyses were conducted in duplicates. Subsequently, the mean retention times of the analytes were taken to calculate their log D7.4 values with aid of the calibration line.
# CDK4 = biological target: T1, CDK4 (Homo sapiens, UniProt P11802); assay: CDK4 degradation, western blot of MM.1S cells; format: cell-based; conditions: 16 h; for remaining activity at 0.1 µM: MM1.S, read-out: D CDK4: remaining CDK4 levels
# T1 construct: Percentage values are normalized to DMSO-treated MM.1S cells and the respective loading controls; endogenous in cells; host or cells: MM.1S (human multiple myeloma)
# T1 sequence (P11802 whole entry): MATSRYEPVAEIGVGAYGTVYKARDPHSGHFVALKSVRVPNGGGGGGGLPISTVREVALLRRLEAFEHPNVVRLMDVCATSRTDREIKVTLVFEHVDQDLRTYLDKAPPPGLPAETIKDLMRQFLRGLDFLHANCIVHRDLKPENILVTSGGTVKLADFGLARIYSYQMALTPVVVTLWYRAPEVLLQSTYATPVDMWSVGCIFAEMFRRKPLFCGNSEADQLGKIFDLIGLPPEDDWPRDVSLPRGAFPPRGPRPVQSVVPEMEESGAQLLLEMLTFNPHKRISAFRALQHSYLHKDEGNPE
# From the text: (§1) We determined the concentration of both kinases and CRBN, the latter in order to control the expression of the corresponding ligase. Since IMiDs, such as pomalidomide, cause the degradation of the lymphoid transcription factors Ikaros (IKZF1) and Aiolos (IKZF3) through the involvement of CRBN,[53],[54] this undesired effect was inspected. […] As further characteristics of CDK4/6d, the desired selectivity of CDK6 over CDK4 degradation and the unwanted influence on the IKZF1 concentration were determined. […] Next, we determined the concentration- and time-dependent activity of 11 (Fig. S2, ESI ^†).
# (§2) Multiple myeloma, leukaemia, and murine cell lines:
# (§3) After respective designated treatments, cells were washed with 1× PBS and lysed in IP lysis buffer (Pierce) containing HALT protease and phosphatase inhibitor cocktail (Thermo Scientific). Sodium dodecyl sulfate-polyacrylamide gel electrophoresis (SDS-PAGE) was performed with 5–20 µg of protein loaded per sample. Gel electrophoresis was carried out at a constant voltage. Proteins were transferred onto Immobilon-P transfer membranes (Millipore). Membranes were blocked with 5% milk in Tris Buffered Saline with 0.05% Tween 20 (TBS-T) followed by overnight incubation at 4 °C with shaking in primary antibodies diluted in 5% BSA in TBS-T. After incubation with respective secondary HRP-conjugated antibodies diluted in 5% milk in TBST, detection of proteins was performed using either WesternBright ECL HRP substrate or WesternBright Sirius HRP substrate (Advansta). Chemiluminescence was detected with ChemiDoc™ XRS+ System (Bio-Rad). For further detection of other proteins on the same membrane, membranes were subjected to incubation in Restore Western Blot Stripping Buffer, followed by re-blocking, and further probing of proteins was […]
# CDK6 = biological target: T2, CDK6 (Homo sapiens, UniProt Q00534); assay: CDK6 degradation, western blot of MM.1S cells; format: cell-based; conditions: for remaining activity at 0.1 µM / remaining activity at 1 µM: read-out: D CDK6: remaining CDK6 levels; for Time CDK6 degradation persists (CDK6 protein below 50%) after drug washout: 0.1 μM for 16 h, then washout with PBS; for Persistence of CDK6 degradation after single drug exposure (long-term treatment): no washout
# T2 construct: Percentage values are normalized to DMSO-treated MM.1S cells and the respective loading controls; endogenous in cells; host or cells: MM.1S (human multiple myeloma)
# T2 sequence (Q00534 whole entry): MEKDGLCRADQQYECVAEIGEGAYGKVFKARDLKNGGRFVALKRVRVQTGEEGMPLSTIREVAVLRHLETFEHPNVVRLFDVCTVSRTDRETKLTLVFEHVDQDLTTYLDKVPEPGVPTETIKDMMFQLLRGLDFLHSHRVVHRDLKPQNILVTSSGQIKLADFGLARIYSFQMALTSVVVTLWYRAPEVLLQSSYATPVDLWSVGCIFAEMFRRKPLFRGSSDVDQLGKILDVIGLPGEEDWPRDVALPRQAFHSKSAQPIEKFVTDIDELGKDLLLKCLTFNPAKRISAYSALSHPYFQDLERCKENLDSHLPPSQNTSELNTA
# From the text: as §1, §2, §3
# HEL cells = assay: Cell viability assay (CellTiter-Glo), HEL cells; format: cell-based; conditions: Homo sapiens, 96 h
# Method: as §2
# (§4) Cells were seeded in 96-well plates with media containing indicated concentrations of respective compounds and plates were incubated at 37 °C for 96 hours. Readout was performed with CellTiter-Glo® Luminescent Cell Viability Assay (Promega) according to the manufacturer’s protocol and luminescence was measured with POLARStar Omega plate reader (BMG LabTech). All results were normalized to non-treated conditions and data represent mean ±SD of biological triplicates. […]
# (§5) Dose response curves were modeled and plotted by using GraphPad Prism software (GraphPad Software). Statistical analysis was performed using GraphPad Prism software (GraphPad Software).
# (§6) Variance of biological replicates is represented as the standard error of the mean (SEM) or as the […]
# MDA-MB-231 cells [2] = assay: Cell viability assay (CellTiter-Glo), MDA-MB-231 breast cancer cells; format: cell-based, human; conditions: 96 h
# Method: Breast cancer cell lines:
# To access the compound effect on cell viability, cells were plated in 384-well tissue culture-treated plates (Greiner Bio One). Twenty-four hours later, tested compounds were added into culture to the desired concentrations. Cell viability was measured by using CellTiter-Glo® Luminescent Cell Viability Assay (Promega) at day 4 or day 7 post-treatment and normalized by non-treated controls. […]
# as §5, §6
# [3] = system: MM.1S, LP-1, AMO-1, MOLM-13, HEL, KG-1, K562, Nalm-6; assay: Cell viability assay (CellTiter-Glo), multiple myeloma and leukemia cell lines; format: cell-based, human; conditions: 96 h, 0.1 or 1 μM; for Effect on cell proliferation: MM.1S, LP-1, AMO-1, MOLM-13, HEL, KG-1, K562, Nalm-6
# Method: as §2, §4, §5, §6
# MDA-MB-231 cells [4] = assay: Cell migration (wound-healing) assay; format: cell-based, human; conditions: 0.1 μM, 24 h post-scratch
# Method: In total 800.000 MDA-MB-231 breast cancer cells were seeded on uncoated 24-well plates (Starlab).
# After 24 h DMEM medium (Pan Biotech) was removed, wells were washed twice with PBS and incubated with 0.1 µM palbociclib, 0.1 µM 34, 0.1 µM VH298 or DMSO in fresh FCS-free medium.
# After 24 h of incubation, a scratch was conducted with a 100 µL pipette tip (Starlab), medium was removed, wells were washed twice with PBS and again incubated with fresh FCS-free medium containing the compounds at the aforementioned concentrations. Wound healing was observed microscopically for 24 h with 10-fold magnification (Axiovert 100, Zeiss, Germany). Migration speed was quantified according to the reduced scratch wound area over time.
# as §5, §6
# [5] = Susceptibility to hydrolysis in buffer, LC/MS; format: physicochemical; conditions: buffer pH 1, 24 h, 37 °C
# Method: Next, we investigated the persistence of CDK6 degradation after single drug exposure. […] The differences were even more pronounced when conducting a drug washout-step, showing that while BSJ-03-123 kept CDK6 protein below 50% for a maximum of 6 h, CDK6 degradation mediated by PROTACs 27 and 34 was more persistent and stable for up to 72 h (Fig. 4E and S10, ESI ^†). […] Since these degraders mainly differ in the ligase-binding part, we hypothesized that the deviations in the long-term experiments (Fig. 5A) are due to chemical inactivation of the CRBN ligand. We then tested compounds 27, 34 (VHL-based) and BSJ-03-123 (8, CRBN-based) for susceptibility to hydrolysis. These PROTACs were incubated in two different buffers for 24 h at 37 °C and aliquots were analysed by LC/MS.
# Fig. 5 (A) Quantification of long-term treatment experiments (see Fig. S9, ESI ^†) and (B) drug stability data at pH 1 and pH 7.4. Acetonitrile solutions of the PROTACs were mixed with two different buffers and incubated for 24 hours at 37 °C. Subsequently, aliquots were analysed by LC/MS and normalized to acetonitrile solutions.
# [6] = 0.1 μM, MM.1S cells, normalized to DMSO (100%)
# [7] = MM1.S, 0.1 μM, 16 h, MM.1S cells, normalized to DMSO (100%)
# [8] = MM1.S, 1 μM, 16 h, MM.1S cells, normalized to DMSO (100%)
Structure (SMILES),chromatographic logD [1],remaining activity at 0.1 µM (CDK4; [6]),DC50 (CDK4; MM.1S cells),"Selectivity ratio D CDK4/D CDK6 for the degradation of CDK6 over CDK4 (CDK6; 0.1 μM, 16 h, MM.1S cells)",remaining activity at 0.1 µM (CDK6; [7]),remaining activity at 1 µM (CDK6; [8]),"Dmax (CDK6; MM1.S, MM.1S cells, 16 h, at a concentration as low as 100 nM, read-out: Dmax: maximum of CDK6 degradation)",Time CDK6 degradation persists (CDK6 protein below 50%) after drug washout (CDK6; MM.1S cells),"DC50 (CDK6; MM.1S cells, 16 h, 1 μM value excluded (hook effect))",Persistence of CDK6 degradation after single drug exposure (long-term treatment) (CDK6; MM.1S cells),IC50 (HEL cells),Inhibitory activity on cell viability relative to palbociclib (MDA-MB-231 cells [2]),Effect on cell proliferation [3],Reduction of wound healing (MDA-MB-231 cells [4]),Stability to hydrolysis at pH 1 [5],remaining activity at 0.1 µM (CDK4),"remaining activity at 0.1 µM (CDK6; MM1.S, 16 h)","remaining activity at 1 µM (CDK6; MM1.S, 16 h)","Cell viability compared with palbociclib, VHL-series PROTACs and IAP ligand 5 ([3]; MM.1S and Nalm-6 cells)",IC50 (MDA-MB-231 cells [2]; Homo sapiens)
CC(=O)c1c(C)c2cnc(Nc3ccc(N4CCN(CCOCCOCCOc5cc(-c6scnc6C)ccc5CNC(=O)[C@@H]5C[C@@H](O)CN5C(=O)[C@@H](NC(=O)C5(F)CC5)C(C)(C)C)CC4)cn3)nc2n(C2CCCC2)c1=O [34 (CST651)],3.1,44%,20 nM,31,1.4%,8.5%,> 95%,up to 72 h,5.1 nM,satisfactory CDK6 level suppression even after 96 h,450 nM,inhibitory activity comparable to palbociclib,inhibited cell proliferation,29%,stable,–,–,–,–,–
CC(=O)c1c(C)c2cnc(Nc3ccc(N4CCN(CCOCCOCCOCC(=O)N[C@H](C(=O)N5C[C@H](O)C[C@H]5C(=O)N[C@@H](C)c5ccc(-c6scnc6C)cc5)C(C)(C)C)CC4)cn3)nc2n(C2CCCC2)c1=O [27 (CST620)],2.9,33%,–,19,1.7%,15%,–,up to 72 h,–,satisfactory CDK6 level suppression even after 96 h,1540 nM,inhibitory activity comparable to palbociclib,inhibited cell proliferation,–,stable,–,–,–,–,–
CN[C@@H](C)C(=O)N[C@H](C(=O)N1C[C@@H](Oc2cccc(OCCOCCOCCOCCN3CCN(c4ccc(Nc5ncc6c(C)c(C(C)=O)c(=O)n(C7CCCC7)c6n5)nc4)CC3)c2)C[C@H]1C(=O)N[C@@H]1CCCc2ccccc21)C1CCCCC1 [compound 35],4.3,–,–,–,–,–,–,–,–,–,–,–,–,–,–,77%,75%,18%,more strongly impaired,–
"CC(=O)c1c(C)c2cnc(Nc3ccc(N4CCNCC4)cn3)nc2n(C2CCCC2)c1=O [palbociclib, reference compound]",–,–,–,–,–,–,–,–,–,–,4160 nM,–,–,17%,–,–,–,–,–,260 nM
"Cc1ncsc1-c1ccc(CNC(=O)[C@@H]2C[C@@H](O)CN2C(=O)[C@@H](NC(=O)C2(C#N)CC2)C(C)(C)C)cc1 [4 (VH298), VH298, reference compound]",–,–,–,–,–,–,–,–,–,–,–,–,–,did not affect the ability of MDA-MB-231 cells to migrate,–,> 95%,> 95%,–,–,–
